# Patent publication US20210000912A1, “Compositions And Methods For Prophylaxis Or Treatment Of Pain” (Interk Peptide Therapeutics Limited, priority 2017, published 2021)
# Key:
# CFA-injected mice [1] = assay: Grip strength testing in CFA study; type: in vivo, C57Bl/6 mice
# Protocol: Forepaw grip strength was determined using a grip strength meter (DFIS-2 series digital force gauge, Columbus Instruments, Columbus, Ohio). The animals' forelimbs were placed on a horizontal bar connected to a force gauge. The animal was the gently pulled away from the bar and the peak force required for a release was recorded. Each mouse was tested 3 times, with a 1 min inter-trial interval (Martinez-Huenchullan, S. F., et al., “Utility and reliability of non-invasive muscle function tests in high-fat-fed mice”. Experimental Physiology, 2017. 102(7): p. 773-778). The average peak tension (g), and tension normalised to body weight were compared.
# PKG1β (h) = target: T1, PKG1β (h) (Homo sapiens, UniProt Q13976); assay: PKG1β kinase activity assay, cell free; type: biochemical
# T1 construct: purchased Eurofins Pharma Discovery Services UK Ltd (contract assay service)
# T1 sequence (Q13976 1-686 isoform Q13976-2): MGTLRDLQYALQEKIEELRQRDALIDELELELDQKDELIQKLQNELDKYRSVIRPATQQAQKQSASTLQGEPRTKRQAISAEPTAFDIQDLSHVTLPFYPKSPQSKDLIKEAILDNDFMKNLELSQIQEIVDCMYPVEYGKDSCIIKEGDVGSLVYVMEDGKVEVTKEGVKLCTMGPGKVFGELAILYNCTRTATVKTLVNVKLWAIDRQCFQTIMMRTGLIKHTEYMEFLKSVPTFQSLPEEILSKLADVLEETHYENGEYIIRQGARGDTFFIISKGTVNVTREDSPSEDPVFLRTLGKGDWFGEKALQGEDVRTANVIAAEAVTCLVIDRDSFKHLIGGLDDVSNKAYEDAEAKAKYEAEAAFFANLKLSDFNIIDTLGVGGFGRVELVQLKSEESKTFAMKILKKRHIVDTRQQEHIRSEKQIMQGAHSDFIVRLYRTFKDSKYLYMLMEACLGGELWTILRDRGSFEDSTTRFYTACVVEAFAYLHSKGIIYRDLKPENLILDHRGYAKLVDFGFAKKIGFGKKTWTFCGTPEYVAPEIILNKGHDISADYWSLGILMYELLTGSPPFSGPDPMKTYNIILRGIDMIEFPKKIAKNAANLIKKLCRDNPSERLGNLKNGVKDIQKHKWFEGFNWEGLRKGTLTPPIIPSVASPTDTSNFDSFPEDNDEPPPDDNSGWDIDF
# Protocol: (§1) The capacity of test peptides to inhibit the activity of the kinases PKG1α, PKG1β, and Src family kinases in a cell free assay was assessed. The test peptides were amidated at their C-terminal end (indicated by “—NH2”) unless otherwise noted. Kinase activity assays were conducted by Eurofins Pharma Discovery Services UK Ltd (Dundee Technology Park, Dundee, United Kingdom) and Reaction Biology Corp. (Malvern, Pa., USA).
# (§2) All test peptides are prepared to 50× final assay concentration in 100% DMSO. This working stock of the test compound is added to assay wells as the first component in the reaction, followed by the remaining components of the respective assay protocols described below. There is no pre-incubation step between the test peptide and the kinase prior to initiation of the reaction. The kinases are diluted in buffer (20 mM MOPS, 1 mM EDTA, 0.01% Brij-35, 5% Glycerol, 0.1% β-mercaptoethanol, 1 mg/mL BSA) prior to addition to the reaction mix.
# (§3) Positive control wells contain all components of the reaction, except the test peptide of interest. However, DMSO (at a final concentration of 2%) is included in positive control wells to control for solvent effects. Negative control wells contain all components of the reaction, with a reference inhibitor (staurosporine) replacing the test peptide. This abolishes kinase activity and establishes a base-line (0% kinase activity). Kinase assay protocols (Eurofins Pharma Discovery Services UK Ltd, Dundee Technology Park, Dundee, United Kingdom) are described below. Of the Src family kinases, only the assay protocol for c-Src is shown.
# (§4) PKG1b(h) is incubated with 8 mM MOPS pH 7.0, 0.2 mM EDTA, 10 μM cGMP, 200 μM RRRLSFAEPG, 10 mM magnesium acetate and [γ-^33P]-ATP (specific activity approx. 500 cpm/pmol, concentration as required). The reaction is initiated by the addition of the MgATP mix. After incubation for 40 minutes at room temperature, the reaction is stopped by the addition of 3% phosphoric acid solution. A 10 μL aliquot of the reaction is then spotted onto a P30 filtermat and washed three times for 5 mins in 75 mM phosphoric acid and once in methanol prior to drying and scintillation counting.
# PKG1α (h) = target: T2, PKG1α (h) (Homo sapiens, UniProt Q13976); assay: PKG1α kinase activity assay, cell free; type: biochemical
# T2 construct: purchased Eurofins Pharma Discovery Services UK Ltd (contract assay service)
# T2 sequence (Q13976 1-671): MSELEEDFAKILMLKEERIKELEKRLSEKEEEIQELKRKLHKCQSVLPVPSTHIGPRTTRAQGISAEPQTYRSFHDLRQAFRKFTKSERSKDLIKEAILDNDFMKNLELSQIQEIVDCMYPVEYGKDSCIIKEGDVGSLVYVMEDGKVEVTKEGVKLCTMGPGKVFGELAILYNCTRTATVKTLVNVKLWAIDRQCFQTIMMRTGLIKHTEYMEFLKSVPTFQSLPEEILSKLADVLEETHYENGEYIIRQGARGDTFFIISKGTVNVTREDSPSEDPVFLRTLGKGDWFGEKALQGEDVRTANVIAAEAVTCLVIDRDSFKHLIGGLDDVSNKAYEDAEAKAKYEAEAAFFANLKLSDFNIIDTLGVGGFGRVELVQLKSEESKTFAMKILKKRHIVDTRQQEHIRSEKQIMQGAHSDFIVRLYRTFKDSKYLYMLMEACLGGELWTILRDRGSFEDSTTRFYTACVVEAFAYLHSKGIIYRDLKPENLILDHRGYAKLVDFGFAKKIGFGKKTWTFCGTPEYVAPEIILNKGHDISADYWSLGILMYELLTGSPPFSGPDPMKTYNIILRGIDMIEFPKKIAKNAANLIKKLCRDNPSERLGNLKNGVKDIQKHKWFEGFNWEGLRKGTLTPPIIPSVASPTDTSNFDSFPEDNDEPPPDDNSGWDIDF
# Protocol: as §1, §2, §3
# as §4, with “PKG1α (h) is incubated” for “PKG1b(h) is incubated”, “200 μM peptide RRRLSFAEPG, 10” for “200 μM RRRLSFAEPG, 10”
# CFA-injected mice [2] = assay: CFA inflammatory pain model, incapacitance testing
# [3] = cell free, 10 μM cGMP, 40 minutes at room temperature
structure (smiles),measurement,setting,value
"N=C(N)NCCC[C@H](NC(=O)[C@H](CCCNC(=N)N)NC(=O)[C@H](CCCNC(=N)N)NC(=O)[C@H](CCCNC(=N)N)NC(=O)[C@H](CCCNC(=N)N)NC(=O)[C@H](CCCNC(=N)N)NC(=O)[C@H](CCCNC(=N)N)NC(=O)[C@H](CCCNC(=N)N)NC(=O)[C@H](CCCNC(=N)N)NC(=O)[C@H](CCCNC(=N)N)NC(=O)[C@H](CCCNC(=N)N)NC(=O)[C@H](CCCNC(=N)N)NC(=O)[C@H](CCCNC(=N)N)NC(=O)[C@@H](N)CCCNC(=N)N)C(N)=O [IK01400, RRRRRRRRRRRRRR-NH2]",alertness of animals,CFA-injected mice [1]; all time points,alert at all time points
same,grip strength compared to vehicle control,"CFA-injected mice [1]; intra-peritoneal, CFA study",no difference
same,IC50,PKG1β (h),5.3 nM
same,PKG1β IC50,PKG1β (h); [3],single digit nanomolar range
same,IC50,PKG1α (h),6.7 nM
same,PKG1α IC50,PKG1α (h); [3],single digit nanomolar range
same,alleviation of inflammatory pain,"CFA-injected mice [2]; mice, both doses of the peptide employed",alleviated pain
same,hyperactivity,"CFA-injected mice [2]; mice, intra-peritoneal",no hyperactivity was observed
same,time at which peak effect was reached following administration,"CFA-injected mice [2]; mice, intra-peritoneal",> 1 h
same,"effectiveness in incapacitance test, morphine versus IK01400 (8.6 mg/kg)",CFA-injected mice [2]; second hour after administration,more effective than morphine
